# Experimental data as given in patent publication US20260097047A1, “Small molecule inhibitors of the ribosome biogenesis factor NVL2” (Board of Regents, The University of Texas System, priority 2023, published 2026).
# “And” between values parts separate entries of the source, which are not always exact repeats. Equal entries are not always repeated.
# Assays:
# [1] = test system: MM017-resistant iHCT116 clones; assay: Forward genetics: MM017-resistant iHCT116 clones (NVL mutations); format: cell-based, human; conditions: summary statement
# [2] = Pharmacokinetic studies in CD-1 female mice, intraperitoneal; format: in vivo, mouse
# Experimental: Plasma exposure was dose-dependent up to 35 mg/kg (IP injection) reaching a maximum concentration at 17.86 μM. These levels exceed the anti-proliferative IC99 of MM927 in cells expressing either human or mouse NVL. In a subsequent pharmacodynamic (PD) study, we asked if we could assess on-target NVL inhibition via a subsequent p53 and/or p21 induction in tumor xenografts in mice treated with MM927. We implanted HCT116 NVL^WT and NVL^R403W cells subcutaneously on either flank of the mice and evaluated the levels of p53 and p21 in either tumor at various time points after IP administration of 35 mg/kg of MM927.
# Pharmacokinetic studies were performed by dosing 6-7 week old CD-1 female mice with analog MM927 formulated as 10% DMSO/10% Kolliphor EL/10% Solutal/70% D5W via the intraperitoneal route. Animals were euthanized in groups of three, blood was obtained by cheek bleeds at each time point (0, 10, 30, 90, 180, 360, 960 and 1440 minutes post dose) using the anticoagulant ACD (acidified citrate dextrose) and plasma isolated by centrifugation. For the dose escalation study, mice were dosed with 20 mg/kg, 35 mg/kg, or 60 mg/kg and blood was collected at 10, 180, and 720 minutes post dose. […] The resulting supernatants were evaluated by LC-MS/MS using a Sciex (Framingham, MA) 4500 Triple Quad coupled to a Shimadzu (Columbia, MD) Prominence LC. Briefly, MM927 was detected in multiple reaction monitoring mode (MRM) using the (m+1) transition 488.059/176.1. […] The concentrations of drug in each time-point sample were quantified using Analyst software (Sciex). […] The limit of quantitation (LOQ) was defined as the lowest concentration at which back calculation yielded a concentration within 20% of theoretical and which was above the LOD. Cmax and AUC values were calculated using the noncompartmental analysis tool of Phoenix WinNonLin (Certara/Pharsight, Sunnyvale, CA).
# HCT116 NVL^R403W tumors = assay: Efficacy study: HCT116 NVL^R403W xenografts; format: in vivo, mouse; conditions: 35 mg/kg IP twice a day for 21 days
# Experimental: (§1) Having established the kinetics of MM927 mediated NVL inhibition in xenograft tumors, we administered 35 mg/kg MM927 IP twice a day for 21 days to mice harboring tumors derived from either HCT116 NVL wild type or NVL^R403W cells. […] Taken together, we concluded that the potent, and bioavailable analog MM927 reduces tumor growth in mouse xenografts by inhibiting NVL without toxicity.
# (§2) Efficacy study: Five million parental HCT116 cells or HCT116 NVL^R403W in a volume of 0.1 mL were implanted in the right flank. Tumor volumes were measured every 2 to 4 days with calipers. Volume is calculated as [(L*W^2)*3.14]/6. When volumes reached ˜110 mm^3, treatment was started with 35 mg/kg MM927 or vehicle control (0.2 mL/mouse) twice a day for 21 days. Mice were euthanized at the end of the 21-day treatment period or when any tumor reached 2 cm in its largest diameter, in agreement with the approved animal protocol. At the end of treatment, blood and tumor tissue were collected for pharmacokinetic analysis, measurement of complete blood counts, and blood chemistry measurements as described. Serum alanine transaminase and blood urea nitrogen were analyzed using VITROS MicroSlide technology.
# [3] = Toxicity read-outs in efficacy study (body weight, blood counts, blood chemistry); format: in vivo; conditions: 35 mg/kg IP twice a day for 21 days
# Experimental: as §1, §2
SMILES,resistance caused by mutations in NVL2 [1] [fold],"maximum plasma concentration ([2]; 35 mg/kg IP injection, dose escalation) [µM]","half-life ([2]; female, CD-1, mouse, plasma, 10 mg/kg intraperitoneal (IP) injection, read-out: elimination half-life) [h]","Cmax ([2]; female, CD-1, mouse, plasma, 10 mg/kg intraperitoneal (IP) injection, read-out: peak plasma levels (Cmax))","endpoint tumor burden, NVL^R403W (HCT116 NVL^R403W tumors)",rate of growth of NVL^R403W tumors (HCT116 NVL^R403W tumors),"body weight, red and white blood cells, hemoglobin, platelets, alanine transaminase, blood urea nitrogen versus vehicle [3]",overt toxicity [3]
COCCN1C(=O)c2ccccc2Sc2cc(NC(=O)c3ccoc3)ccc21 [MM017],30,,,,,,,
"CC#CCN1C(=O)c2ccc(F)cc2Sc2cc(NC(=O)c3ccc4oc(=O)n(C)c4c3)ccc21 [MM927, N-(10-(But-2-yn-1-yl)-3-fluoro-11-oxo-10,11-dihydrodibenzo[b,f][1,4]thiazepin-7-yl)-3-methyl-2-oxo-2,3-dihydrobenzo[d]oxazole-5-carboxamide]",,17.86,1.69,2510 ng/mL and 5.15 µM,no effect,no significant impact,no significant difference,no signs of overt toxicity
